Assay results reported in US7109193B2, “Tricyclic diazepines tocolytic oxytocin receptor antagonists” (Wyeth, priority 2001, dated 2006).

Target: T1, human vasopressin V1a receptor subtype (Homo sapiens, UniProt P37288)
T1 construct: host or cells: CHO cells (pZeoSV vector for the Thibonnier line)
Assay: Vasopressin binding in Chinese Hamster Ovary cell membranes expressing human vasopressin V1a subtype receptors
Settings: 100 nM, CHO cell membranes, [3H]Manning ligand, values without parentheses
Method: Vasopressin Binding in Chinese Hamster Ovary Cell Membranes Expressing Human Vasopressin V1a Subtype Receptors
The trypsin is removed by aspiration and the cells dislodged by tapping. Cell Culture medium (e.g. 30 mL for 1:30 split) is immediately added and mixed well to inactivate trypsin. 1 mL of detached cells is added to new culture flasks containing fresh cell culture medium (e.g., into 25 mL per T-150 flask), and mixed gently. The cells are incubated at 37° C. in 5% CO2. The medium is changed at 3 to 4 days interval (or as appropriate). […] All steps are done under sterile conditions. B. Membrane Preparation: The cells are washed twice gently with Hank's Balanced Salt solution (e.g,. use 10 mL per T-150 flask). […] The contents are transferred to centrifuge tubes (50 mL) kept in an ice bath. All subsequent steps are done at 4° C. The tubes are centrifuged at 300×g for 15 min (1380 rpm on SORVAL, Model RT6000D, using the rotor for 50 mL tubes). The supernatant is discarded and the cells suspended in homogenizing buffer(10 mM Tris-HCl containing 0.25 M sucrose and 1 mM EDTA, pH 7.4) ensuring that the volume of the buffer is about ten times the volume of the cell pellet. The cells are pooled into a centrifuge tube (50 mL) and homogenized with a Polytron at setting 6 for 10 sec. The homogenate is transferred into a Potter-Elvjehm homogenizer and homogenized with 3 strokes. The homogenate is centrifuged at 1500×g for 10 min at 4° C. (3100 rpm using SORVAL, model RT6000D, using the rotor for 50 mL tubes). The pellet is discarded. The supernatant is centrifuged at 100,000×g for 60 min. at 4° C. (Beckman L8-80M ultracentrifuge; spin at 37,500 rpm with rotor type 70 Ti for 50 mL tubes; 38,000 rpm with type 80Ti for 15 mL tubes; or 35,800 rpm with rotor type 45Ti). The supernantant is discarded and the pellet suspended in 3 to 4 mL of Tris buffer (50 mM TRIS-HCl, pH 7.4). The protein content is estimated by the Bradford or Lowry method. The volume of the membrane suspension is adjusted with the membrane buffer (50 mM Tris-HCl containing 0.1% BSA and 0.1 mM PMSF) to give 3.0 mg/mL (or as appropriate) of protein. The membranes are aliquoted and stored at −70° C. C. Radioligand Binding Assay: In wells of a 96-well format microtiter plate, is added 90, 110 or 130 μL (to make up a final volume of 200 μL) of assay buffer containing 50 mM of Tris-HCl (pH 7.4), BSA (heat inactivated, protease-free), […], 1 mg % aprotinin, 1 mg % leupeptin, 2 mg % 1,10-phenanthroline, 10 mg % trypsin inhibitor, and 0.1 mM PMSF. The inhibitors are added on the day of the experiment. The components are mixed at room temperature, and then kept in ice bath following adjustment of the pH to 7.4. […] 20 μL of 50% DMSO is added for Manning and other peptide ligands and the assay buffer volume is adjusted accordingly. To each well is added 50 μL of frozen membrane suspension thawed immediately prior to use and diluted in the assay buffer to the required concentration (equivalent to 25 to 50 μg of protein/well as needed). 20 μL of 8 nM [^3H]Manning ligand in the assay buffer, prepared just before use, is added, and incubated at room temperature for 60 min. shaking the plate on a mechanical shaker for the first 15 min. The incubation is stopped by rapid filtration of the plate contents followed by wash with ice-cold buffer (50 mM Tris-HCl, pH 7.4) using a cell harvester (Tomtek and Printed filtermat-B filter paper). The filter paper is thoroughly dried (7–12 min. in a microwave oven) and impregnated with MeltiLex B/H melt-on scintillation wax sheets and the radioactivity counted in a betaplate scintillation counter.
Binding data is either reported as percent inhibition at a certain concentration or if an IC50 was calculated, as a nanomolar concentration.

T1 sequence (P37288 whole entry): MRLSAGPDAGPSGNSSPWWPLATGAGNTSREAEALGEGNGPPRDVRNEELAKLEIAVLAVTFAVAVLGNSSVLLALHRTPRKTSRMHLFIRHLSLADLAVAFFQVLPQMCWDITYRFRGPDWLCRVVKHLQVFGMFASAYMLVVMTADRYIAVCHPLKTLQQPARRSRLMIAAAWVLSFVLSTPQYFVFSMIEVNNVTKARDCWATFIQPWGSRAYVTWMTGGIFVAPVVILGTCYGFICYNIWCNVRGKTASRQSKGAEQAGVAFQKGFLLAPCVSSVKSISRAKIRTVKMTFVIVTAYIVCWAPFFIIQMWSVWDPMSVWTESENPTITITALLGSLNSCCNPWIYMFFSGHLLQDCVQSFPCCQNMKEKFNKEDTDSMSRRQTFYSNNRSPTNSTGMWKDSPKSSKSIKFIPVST

First: COc1cccc(-c2ccc(C(=O)N3Cc4ccc(C(=O)N5CCN(CCN(C)C)CC5)n4Cc4ccccc43)cc2C)c1 [Example 199, {4-[2-(Dimethylamino)ethyl]-1-piperazinyl{}10-[(3′-methoxy-2-methyl[1,1′-biphenyl]-4-yl)carbonyl]-10,11-dihydro-5H-pyrrolo[2,1-c][1,4]benzodiazepin-3-yl}methanone]
Second: {10-[(2,2′-Dimethoxy[1,1′-biphenyl]-4-yl)carbonyl]-10,11-dihydro-5H-pyrrolo[2,1-c][1,4]benzodiazepin-3-yl}(4-isopropyl-1-piperazinyl)methanone [Example 244]
The “V1a % inhibition @ 100 nM” value of the first is lower: 23% for the first, 44% for the second.

First: O=C(c1ccc(-c2cccc3ccccc23)cc1Cl)N1Cc2ccc(C(=O)N3CCC[C@H]3CN3CCCC3)n2Cc2ccccc21 [Example 261, {10-[2-Chloro-4-(1-naphthyl)benzoyl]-10,11-dihydro-5H-pyrrolo[2,1-c][1,4]benzodiazepin-3-yl}[(2S)-2-(1-pyrrolidinylmethyl)pyrrolidinyl]methanone]
Second: COc1cc(C(=O)N2Cc3ccc(C(=O)N4CCC[C@H]4CN4CCCC4)n3Cc3ccccc32)ccc1-c1ccccc1C [Example 266, {10-[(2-Methoxy-2′-methyl[1,1′-biphenyl]-4-yl)carbonyl]-10,11-dihydro-5H-pyrrolo[2,1-c][1,4]benzodiazepin-3-yl}[(2S)-2-(1-pyrrolidinylmethyl)pyrrolidinyl]methanone]
The “V1a % inhibition @ 100 nM” value of the first is lower: 13% for the first, 49% for the second.

Going from Cc1cc(C(=O)N2Cc3ccc(C(=O)NCCCN(C)C)n3Cc3ccccc32)ccc1-c1ccccc1C(F)(F)F [Example 84, N-[3-(Dimethylamino)propyl]-10-{[2-methyl-2′-(trifluoromethyl)[1,1′-biphenyl]-4-yl]carbonyl}-10,11-dihydro-5H-pyrrolo[2,1-c][1 .4]benzodiazepine-3-carboxamide] to COc1cccc(-c2ccc(C(=O)N3Cc4ccc(C(=O)NCCC5CCCN5C)n4Cc4ccccc43)cc2C)c1 (stereo not shown) [Example 164, 10-[(3′-Methoxy-2-methyl[1′1′-biphenyl]-4-yl)carbonyl]-N-[2-(1-methyl-2-pyrrolidinyl)ethyl]-10,11-dihydro-5H-pyrrolo[2,1-c][1,4]benzodiazepine-3-carboxamide], the “V1a % inhibition @ 100 nM” value rises from 1% to 23%.

Cc1cccc(N2CCN(C(=O)c3ccc4n3Cc3ccccc3N(C(=O)c3ccc(-c5ccccc5C(F)(F)F)c(C)c3)C4)CC2C)c1 (stereo not shown) [Example 5, [3-Methyl-4-(3-methyl-phenyl)-piperazin-1-yl]-[10-(2-methyl-2′-trifluoromethyl-[1,1′-biphenyl]-4-yl)carbonyl]-10,11-dihydro-5H-pyrrolo[2,1-c][1,4]benzodiazepin-3-yl-methanone] was tested, and the “V1a % inhibition @ 100 nM” value was −6%.

Compared with COc1cc(-c2ccccc2C)c(Cl)cc1C(=O)N1Cc2ccc(C(=O)NCCCn3ccnc3)n2Cc2ccccc21 [Example 129, 10-[(6-Chloro-3-methoxy-2′-methyl[1,1′-biphenyl]-4-yl)carbonyl]-N-[3-(1H-imidazol-1-yl)propyl]-10,11-dihydro-5H-pyrrolo[2,1-c][1,4]benzodiazepine-3-carboxamide], COc1ccccc1-c1ccc(C(=O)N2Cc3ccc(C(=O)NCCCn4ccnc4)n3Cc3ccccc32)cc1OC [Example 132, 10-[(2,2′-Dimethoxy[1,1′-biphenyl]-4-yl)carbonyl]-N-[3-(1H-imidazol-1-yl)propyl]-10,11-dihydro-5H-pyrrolo[2,1-c][1,4]benzodiazepine-3-carboxamide] is lower in inhibition at 0.1 µM: 6% for the first, 2% for the second.

Going from CN(C)CCCN(C)C(=O)c1ccc2n1Cc1ccccc1N(C(=O)c1ccc(-c3cccc4ccccc34)cc1Cl)C2 [Example 109, 10-[2-Chloro-4-(1-naphthyl)benzoyl]-N-[3-(dimethylamino)propyl]-N-methyl-10,11-dihydro-5H-pyrrolo[2,1-c][1,4]benzodiazepine-3-carboxamide] to O=C(NCCCn1ccnc1)c1ccc2n1Cc1ccccc1N(C(=O)c1ccc(-c3cccc4ccccc34)cc1Cl)C2 [Example 134, 10-[2-Chloro-4-(1-naphthyl)benzoyl]-N-[3-(1H-imidazol-1-yl)propyl]-10,11-dihydro-5H-pyrrolo[2,1-c][1,4]benzodiazepine-3-carboxamide], the inhibition at 0.1 µM falls from 9% to 5%.

Compared with Cc1ccccc1-c1ccc(C(=O)N2Cc3ccc(C(=O)N4CCC(N5CCCC5)CC4)n3Cc3ccccc32)cc1C [Example 138, {10-[(2,2′-Dimethyl[1,1′-biphenyl]-4-yl)carbonyl]-10,11-dihydro-5H-pyrrolo[2,1-c][1,4]benzodiazepin-3-yl}[4-(1-pyrrolidinyl)-1-piperidinyl]methanone], COc1ccccc1-c1ccc(C(=O)N2Cc3ccc(C(=O)N4CCC(N5CCCCC5)CC4)n3Cc3ccccc32)cc1OC [Example 119, {10-[(2,2′-Dimethoxy-[1,1′-biphenyl]-4-yl)carbonyl]-10,11-dihydro-5H-pyrrolo[2,1-c][1,4]benzodiazepin-3-yl}[4-(1-piperidinyl)-1-piperidinyl]methanone] is lower in inhibition at 0.1 µM: 47% for the first, 9% for the second.

Going from COc1ccccc1-c1ccc(C(=O)N2Cc3ccc(C(=O)NCCN4CCCCC4)n3Cc3ccccc32)cc1C [Example 149, 10-[(2′-Methoxy-2-methyl[1,1′-biphenyl]-4-yl)carbonyl]-N-[2-(1-piperidinyl)ethyl]-10,11-dihydro-5H-pyrrolo[2,1-c][1,4]benzodiazepine-3-carboxamide] to COc1cc(C(=O)N2Cc3ccc(C(=O)NCCN4CCCCC4)n3Cc3ccccc32)ccc1-c1ccccc1C [Example 154, 10-[(2-Methoxy-2′-methyl[1,1′-biphenyl]4-yl)carbonyl]-N-[2-(1-piperidinyl)ethyl]-10,11-dihydro-5H-pyrrolo[2,1-c][1,4]benzodiazepine-3-carboxamide], the inhibition at 0.1 µM rises from 17% to 39%.

Compared with COc1ccccc1-c1ccc(C(=O)N2Cc3ccc(C(=O)NCCCn4ccnc4)n3Cc3ccccc32)cc1 [Example 126, N-[3-(1H-Imidazol-1-yl)propyl]-10-[(2′-methoxy[1,1′-biphenyl]-4-yl)carbonyl]-10,11-dihydro-5H-pyrrolo[2,1-c][1,4]benzodiazepine-3-carboxamide], Cc1cc(C(=O)N2Cc3ccc(C(=O)NCCCn4ccnc4)n3Cc3ccccc32)ccc1-c1ccccc1C(F)(F)F [Example 135, N-[3-(1H-Imidazol-1-yl)propyl]-10-{[2-methyl-2′-(trifluoromethyl)[1,1′-biphenyl]-4-yl]carbonyl}-10,11-dihydro-5H-pyrrolo[2,1-c][1,4]benzodiazepine-3-carboxamide] is lower in inhibition at 0.1 µM: 9% for the first, 2% for the second.

Compared with O=C(c1ccc2n1Cc1ccccc1N(C(=O)c1ccc(-c3cccc4ccccc34)cc1Cl)C2)N1CCC(N2CCCC2)CC1 [Example 147, {10-[2-Chloro-4-(1-naphthyl)benzoyl]-10,11-dihydro-5H-pyrrolo[2,1-c][1,4]benzodiazepin-3-yl}[4-(1-pyrrolidinyl)-1-piperidinyl]methanone], COc1ccccc1-c1ccc(C(=O)N2Cc3ccc(C(=O)N4CCC(N5CCCC5)CC4)n3Cc3ccccc32)cc1 [Example 140, {10-[(2′-Methoxy[1,1′-biphenyl]-4-yl)carbonyl]-10,11-dihydro-5H-pyrrolo[2,1-c][1,4]benzodiazepin-3-yl}[4-(1-pyrrolidinyl)-1-piperidinyl]methanone] is higher in inhibition at 0.1 µM: 3% for the first, 24% for the second.
